We go through two compounds from patent US20240404621A1, “THERAPEUTIC DEVELOPMENT PLATFORM COMPRISING VARIANT CAPTURE MAPS AND OTHER VISUALIZATIONS” (The Scripps Research Institute, priority 2021, published 2024).

For assay [1], the target named is T1, F508del CFTR (Homo sapiens, UniProt P13569, DEL508-508).
T1 construct: expressed in transfected cells
The assay is described as follows: steady-state CICon at the cell surface of WT and F508del. The class given is cell-based. The conditions noted are these: F508del relative to WT. An excerpt:
(§1) FIG. 2 illustrates an example process of variant spatial profiling (VSP) to generate a phenotype landscape 300 of FIG. 1. VSP uses a sparse collection of variants with known position and phenotypical traits. Each of the variants is positioned on the x-axis by their normalized position in the linear polypeptide sequence, where the full-length chain is assigned a value of 1.0, referred to as the variant sequence position (VarSeqP). The value of a phenotypic feature of each variant's (in this example the trafficking index, TrIdx) to the y-axis. The trafficking index (TrIdx) is the normalized ratio of the fraction of variants exported from the ER relative to the total variant level in the cell, where the value of the WT CFTR TrIdx is assigned a value of 1.0. In this example, the sequence position and TrIdx values are correlated to CFTR chloride conductance (CICon). The normalized CICon is assigned to the z-coordinate, where the value of the WT CFTR CICon is assigned a value of 1.0.
To assess how TrIdx is coupled to CICon at the cell surface in response to ELEXA or TRIKA, we assessed the steady-state CICon at the cell surface of WT and F508del. […] To understand the impact of ELEXA and TRIKA on the SCV relationships spanning the entire CFTR polypeptide, we measured the CICon responses for 64 CF variants. […]

Assay [2] concerns the target T1, F508del CFTR. As to the kind of experiment: total level and trafficking (TrIdx) of F508del in F508del-CFBE41o− cells. The class given is cell-based.
Text: as §1
Referring now to FIG. 13, to address whether the correction of CICon in response to temperature is due to energetic features associated with global SCV relationships responsible for membrane trafficking of CFTR from the ER, we built the VarC map for the CFTR trafficking index (TrIdx) of variants following shift from 37° C. to 27° C. TrIdx quantifies the amount of CFTR in post-ER compartments relative to total CFTR in the cell as a measure of efficiency of ER export. The pairwise-residue based TS/TrIdx-VarC map (FIG. 13, upper left panel) and its corresponding TS/TrIdx-functional-response-structure (FIG. 13, upper second from left panel) reveal that only a limited subset of sequence residues contributes to TrIdx correction upon temperature shift. These include: 1) a sequence region containing F508 (FIG. 13, upper left panel, inset zoom); 2) a region in NBD1 domain including variants L558S, A559T, R560K/T and Y569D that are surrounding the CFTR di-acidic code (YKDAD (residues 563-567)) required for COPII dependent ER export (FIG. 13 upper left panel, inset zoom); 3) a sequence region in ICL4 that is reported by CF variants L1065P and L1077P (13) (FIG. 13, upper left panel, inset zoom). Even though separated in primary sequence, these responding regions cluster together in structure (FIG. 13, upper second from left panel). Overlap of MDC maps and corresponding MDC structures between TS/CICon and TS/TrIdx identifies a common energetic sensitive core (FIG. 13, right side, red) responding to temperature shift for both TrIdx and CICon function. This SCV based energetic sensitive core contains the F508-L1065 covariant link that bridges NBD1 (F508) and ICL4 (L1065) (FIG. 13, right panel, inset zoom, red), mechanistically explaining the previous observation that the NBD1-ICL4 interaction is crippled by F508del.
Consistent with previous results, using F508del-CFBE41o− cells, a bronchial epithelial cell line stably expressing the F508Del CFTR transgene, we found ELEXA alone can increase both the total level and the trafficking efficacy of F508del.
To test whether we can add value to the pairwise-residue networks targeted by TRIKA to improve TRIKA benefit for CF by restoring the lost energetics of the fold in response to F508del affecting the function of di-acidic exit code, we measured the impact of ELEXA and TRIKA impact on F508del at 27° C.

Setting [3] is: F508del at 27° C. compared to 37° C.
[4] abbreviates: F508del-CFBE41o− cells, compound alone.

T1 sequence (P13569 with tags, fused parts or gaps DEL508-508): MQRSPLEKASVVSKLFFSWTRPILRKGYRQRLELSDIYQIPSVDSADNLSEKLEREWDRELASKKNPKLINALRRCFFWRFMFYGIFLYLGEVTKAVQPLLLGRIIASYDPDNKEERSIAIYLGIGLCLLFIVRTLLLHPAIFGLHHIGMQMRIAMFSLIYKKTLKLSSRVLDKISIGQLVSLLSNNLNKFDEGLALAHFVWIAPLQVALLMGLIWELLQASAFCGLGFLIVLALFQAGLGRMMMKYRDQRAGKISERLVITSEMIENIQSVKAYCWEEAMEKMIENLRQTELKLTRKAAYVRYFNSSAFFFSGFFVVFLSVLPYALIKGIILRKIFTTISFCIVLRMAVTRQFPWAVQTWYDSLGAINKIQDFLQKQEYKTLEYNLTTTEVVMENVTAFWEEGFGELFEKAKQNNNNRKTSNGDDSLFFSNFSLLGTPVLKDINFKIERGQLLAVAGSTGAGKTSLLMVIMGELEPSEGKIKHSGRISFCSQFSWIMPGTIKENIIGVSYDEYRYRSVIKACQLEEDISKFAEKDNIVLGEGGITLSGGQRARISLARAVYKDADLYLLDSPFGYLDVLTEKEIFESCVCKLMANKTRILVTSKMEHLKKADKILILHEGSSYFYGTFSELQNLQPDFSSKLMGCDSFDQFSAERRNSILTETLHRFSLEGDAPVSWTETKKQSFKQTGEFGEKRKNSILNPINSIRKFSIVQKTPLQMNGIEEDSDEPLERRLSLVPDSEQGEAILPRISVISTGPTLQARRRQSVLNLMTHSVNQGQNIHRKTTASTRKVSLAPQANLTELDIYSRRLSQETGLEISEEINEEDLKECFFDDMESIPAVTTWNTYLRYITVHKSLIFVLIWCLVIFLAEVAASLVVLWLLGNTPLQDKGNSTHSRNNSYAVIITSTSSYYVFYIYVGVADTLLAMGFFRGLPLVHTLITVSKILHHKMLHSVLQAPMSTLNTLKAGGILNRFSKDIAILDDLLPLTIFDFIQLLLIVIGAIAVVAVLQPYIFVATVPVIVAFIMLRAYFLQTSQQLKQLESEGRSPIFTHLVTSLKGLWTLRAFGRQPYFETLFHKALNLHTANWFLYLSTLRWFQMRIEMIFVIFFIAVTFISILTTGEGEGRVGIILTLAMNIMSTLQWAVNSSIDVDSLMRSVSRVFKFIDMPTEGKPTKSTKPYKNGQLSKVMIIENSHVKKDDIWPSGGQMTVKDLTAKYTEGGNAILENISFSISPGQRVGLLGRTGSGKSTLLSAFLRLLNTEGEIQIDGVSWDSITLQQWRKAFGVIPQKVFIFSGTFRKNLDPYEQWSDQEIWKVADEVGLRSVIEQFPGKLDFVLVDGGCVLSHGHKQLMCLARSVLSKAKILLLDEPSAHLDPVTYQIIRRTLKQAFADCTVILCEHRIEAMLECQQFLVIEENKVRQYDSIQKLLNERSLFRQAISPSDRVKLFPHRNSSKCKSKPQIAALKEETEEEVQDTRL

As to `Cc1nn(C)cc1S(=O)(=O)NC(=O)c1ccc(-n2ccc(OCC(C)(C)C(F)(F)F)n2)nc1N1C[C@@H](C)CC1(C)C` [ELEXA, Elexacaftor], the “CICon function for F508del” value in assay [1] is recorded as ~20 % of WT. In assay [2] (setting [3]), the “level of post-ER band C” value is “dramatic improvement”, the “total CFTR” value was “dramatic improvement” and the “trafficking efficiency (band C relative to total)” value is on record as “dramatic improvement”. For the same compound, in assay [2] (setting [4]), the “total level of F508del” value was “can increase” and the “trafficking efficacy of F508del” value was “can increase”.

For the compound `CC(C)(C)c1cc(C(C)(C)C)c(NC(=O)c2c[nH]c3ccccc3c2=O)cc1O` [IVA, Ivacaftor], the “impact on TrIdx” value in assay [2] (F508del-CFBE41o− cells, IVA added to ELEXA) is “no additional impact”.
